Experimental data taken from a melting point compilation (Tetko et al.; mined from patent text by program, amines drawn as free bases though some values may be those of a salt).

First: CC12CCC(=O)N1CC(=O)N2 (stereo unspecified)
Second: C#CCN1C[C@H](OC(C)=O)CC1=O
The melting point of the first is higher: 187 to 189 °C for the first, 46.5 to 47.5 °C for the second.

Compared with `CN(c1ccccc1-c1ccc2cnc(Nc3ccc(N4CCN(CC(N)=O)CC4)c(F)c3)nn12)S(C)(=O)=O`, `CN1CCN(c2cccc(Nc3cc(NC(=O)Nc4c(Cl)cccc4Cl)ncn3)c2)CC1` is higher in melting point: 148 °C for the first, 209 to 212 °C for the second.

First: C=CCN1CCc2cc(OC)c(O)cc2C1Cc1ccc(OC)c(OC)c1 (single isomer, unassigned; (+))
Second: COc1cc(C(=O)N(CCCC(=O)NCCCC(=O)O)c2c(C)cccc2C)cc(OC)c1OC
The melting point of the first is higher: 108 to 112 °C for the first, 100 to 101 °C for the second.

First: Cc1nc(CS(C)(=O)=O)nc(OC(=O)NN2CCOCC2)c1C
Second: CCCOc1ccc(S(=O)(=O)N2CCN(CCOC(=O)OCC)CC2)cc1-c1nc2c(CCC)cn(CC)c2c(=O)[nH]1
The melting point of the first is higher: 147 °C for the first, 135 to 136 °C for the second.

Compared with `COc1ccccc1C1(N[C@H](CO)c2ccccc2)C(=O)Nc2ccc(Cl)cc21` (stereo partly specified), `NN1C=Nc2ccc(Cl)cc2C1(O)c1ccccc1` (stereo unspecified) is lower in melting point: 172 to 173 °C for the first, 157 to 158 °C for the second.

Compared with `COC(=O)C(=O)c1ccc(OCCOc2ccc3ccncc3c2)cc1`, `CC(C)c1ccccc1Sc1c(O)cc(-c2ccc(OCC(=O)O)cc2)oc1=O` is higher in melting point: 144 to 145 °C for the first, 217 °C for the second.

First: CCCCCCCCCCCC(=O)N[C@@H](Cc1ccc(O)cc1)C(=O)OC
Second: CCCCCCCCCCCCCCNC(=O)c1cc(N)cc(C(=O)NCCCCCCCCCCCCCC)c1
The melting point of the first is lower: 89 °C for the first, 171 to 178 °C for the second.

First: N#Cc1c(-c2cccs2)nn(-c2ccccc2)c1N
Second: CN(C)C(=O)c1ncn2c1CC(=O)N(c1ccccc1)c1cc(Cl)ccc1-2
The melting point of the first is lower: 165 to 167 °C for the first, 255 to 257 °C for the second.

First: Cc1c(F)c(Oc2cccc(C(=N)N)c2)nc(Oc2cccc(C(=N)N)c2)c1F
Second: COc1ccc2[nH]c(C(=NO)c3ccccc3)cc2c1
The melting point of the first is higher: > 210 °C for the first, 150 to 152 °C for the second.

First: Cc1c(C2CCC(c3ccccc3)(N(C)C)CC2)[nH]c2ccc(C#N)cc12 (stereo unspecified)
Second: CN(C)CCc1cn(Cc2ccccc2)c2ccc(Br)cc12
The melting point of the first is higher: 235 to 240 °C for the first, 49 to 50 °C for the second.

Compared with `CCCCc1nc2ccccn2c(=O)c1-c1ccc2[nH]ccc2c1`, `CCCCc1nc2c(N)nc3cc(-c4ccccc4)ccc3c2n1CC(C)C` is higher in melting point: 132 to 135 °C for the first, > 250 °C for the second.

First: CSc1nc(=O)[nH]c(C)c1Cl
Second: CCSc1c(Cl)nc(Cl)nc1Cl
The melting point of the first is higher: 268 °C for the first, 62 to 64 °C for the second.

First: COC(=O)CCc1c[nH]cn1
Second: CCOC(=O)CNc1ccc(C2=NNC(=O)NC2C)cc1 (stereo unspecified)
The melting point of the first is lower: 105 to 108 °C for the first, 180 to 182 °C for the second.

First: Cc1ccc(C=CCC(CCC(=O)O)(C(=O)C=Cc2ccc(Cl)cc2)c2ccccc2)cc1 (stereo unspecified)
Second: Cc1ccc(S(=O)(=O)NC(=O)CC2(c3ccc(OCc4ccc5ccccc5n4)cc3)CCCC2)cc1
The melting point of the first is higher: 170 to 180 °C for the first, 80 °C for the second.

First: CCCCCCCC1=CC(=O)N(Cc2ccccc2)C1(O)CBr (stereo unspecified)
Second: O=C(O)CCCc1cccc(NC(=O)[C@@H](CS)Cc2ccccc2)c1
The melting point of the first is lower: 94 to 96 °C for the first, 149 to 152 °C for the second.

Compared with `CCOC(=O)c1cccc(NC(=O)C(CSC(C)=O)Cc2ccccc2)c1` (stereo unspecified), `O=C(O)Cc1cccc(C(=O)c2ccccc2)c1[N+](=O)[O-]` is higher in melting point: 89 to 92 °C for the first, 160 to 162 °C for the second.

First: COc1cc(CCCC2SC(=O)NC2=O)ccc1OCc1csc(/C=C/c2ccccc2)n1 (stereo unspecified)
Second: O=C(CBr)c1ccc(OCc2ccccc2)c([N+](=O)[O-])c1
The melting point of the first is higher: 161 to 162 °C for the first, 136 °C for the second.

First: CCOC(=O)C(=Cc1cccn2cc(C(C)C)nc12)N=[N+]=[N-]
Second: Cc1c(O)c(=O)ccn1CC(C)C
The melting point of the first is lower: 66 to 68 °C for the first, 170 to 171 °C for the second.

First: Cc1cc(N)c(C)c(Cl)c1Oc1ccc(Cl)c2ccccc12
Second: Cc1ccc(Nc2nnc(Cc3ccncc3)c3ccccc23)cc1C
The melting point of the first is lower: 118 to 125 °C for the first, 180 to 181 °C for the second.

Compared with `CNC(=O)c1cc(F)ccc1CNC(=O)c1nc2n(c(=O)c1OCc1ccccc1)CCN2c1ccccc1`, `CCOC(=O)c1cnc2c(c(C)nn2-c2ccccc2)c1N(Cc1ccccc1)S(=O)(=O)c1ccc(OC)cc1` is lower in melting point: 194 to 195 °C for the first, 164 to 166 °C for the second.

First: C[C@@H](Cn1ccc2ccc3ncccc3c21)NC(=O)OC(C)(C)C
Second: CC(C)(C)OC(=O)c1ccccc1CCc1ccccc1N
The melting point of the first is higher: 185 °C for the first, 58 to 59 °C for the second.

First: CC(C)n1c(=O)n(C)c(=O)c2c(S(=O)(=O)CCCO)n(C3Cc4ccccc4C3)cc21
Second: CCCN1C(=O)N2C[C@@H](Cc3ccccc3)N=C2c2[nH]c(C3(O)CCCC3)nc21
The melting point of the first is higher: 171 to 172 °C for the first, 110 to 115 °C for the second.

Compared with `Cc1cc(C)c2nc(COc3ccc(CC4SC(=O)N(C(c5ccccc5)(c5ccccc5)c5ccccc5)C4=O)cc3)n(C)c2n1` (stereo unspecified), `O=c1cc(-c2ccc(OCc3ccccc3)c(OCc3ccccc3)c2)oc2cc(OCCCCl)ccc12` is higher in melting point: 96 to 99 °C for the first, 153 °C for the second.

First: CCCCCCNC(=O)OCCCCCCCCCCCCNC(=O)OC1CCN(C(=O)O)CC1
Second: CCCCCCCCCC1CNC(=O)O1 (stereo unspecified)
The melting point of the first is higher: 98 to 100 °C for the first, 83 to 85 °C for the second.

First: CCn1cc2c(n1)c(Cl)nc1cc(OCc3ccccc3)ccc12
Second: Fc1cccc(-c2nc(Nc3ccc(Cl)cc3)c3ccccc3n2)n1
The melting point of the first is higher: 155 to 157 °C for the first, 118 to 121 °C for the second.

First: CC1(C)CC(=O)Nc2ccc(-c3cc(F)cc(C#N)c3)cc21
Second: CC1(C)C(=O)Nc2cc(-c3nc4ccccc4[nH]3)ccc21
The melting point of the first is lower: 249 to 250 °C for the first, 326 to 330 °C for the second.

Compared with `CCOC(=O)c1cn(CC)nc1O`, `CCOC(=O)Cn1nc2ccc(Cl)nn2c1=O` is higher in melting point: 109 to 110 °C for the first, 114 to 115 °C for the second.

Compared with `O=[N+]([O-])c1ccc(-c2nc(-c3ccco3)no2)c(Cl)c1`, `O=[N+]([O-])c1cccc2c1C[C@H]1CSC(=S)N1C2` is higher in melting point: 124 to 125 °C for the first, 203 °C for the second.

First: CN1C(=S)NC(=O)C1=Cc1cc(C(C)(C)C)c(O)c(C(C)(C)C)c1
Second: CC(C)(C)c1cc(C=C2CCN(CCO)C2=O)cc(C(C)(C)C)c1O
The melting point of the first is higher: 242 to 244 °C for the first, 191 °C for the second.

Compared with `N#Cc1ccc(N(Cc2ccc(Br)cc2)n2cnnc2)cc1-c1ccc(O)cc1`, `O=C1NCC=NN1c1cc(Cl)c(Cc2ccc(C(O)c3ccc(Cl)nc3)cc2)c(Br)c1` (stereo unspecified) is lower in melting point: 222 to 224 °C for the first, 167 to 169 °C for the second.

Compared with `N#Cc1cnc2sc(-c3cccc(C=O)c3)cc2c1Nc1cccc2[nH]ccc12`, `COC(=O)c1ccc(C2=NOC(c3cc(Cl)cc(Cl)c3)(C(F)(F)F)C2)c2ccccc12` (stereo unspecified) is lower in melting point: > 245 °C for the first, 137 to 138 °C for the second.

First: CCOC(=O)c1c(N2CCCC2)c2cnc(-c3ccccc3)nc2n(CC)c1=O
Second: Cc1cccc2c1nc(COc1ccc(Cl)cc1)n2CCC(C)CN1CCCC1 (racemic)
The melting point of the first is higher: 149 to 153 °C for the first, 85 to 87 °C for the second.

First: COC(=O)c1nc(Oc2ccccc2)c(Cl)c(N)c1Cl
Second: COC(=O)c1sc(Nc2ccc(Cl)cc2)nc1C
The melting point of the first is lower: 88 to 90 °C for the first, 172 to 173 °C for the second.

First: CC(C)(C)OC(=O)NCC1CCCc2ccc(C(=O)O)cc21 (stereo unspecified)
Second: CC(C)(C)NC(=O)c1ccc(C(F)(F)F)cc1
The melting point of the first is higher: 172 to 176 °C for the first, 146 to 148 °C for the second.

Compared with `C=CCSc1ccc(Oc2ccccc2)nn1`, `Cc1nnc(SCC2=C(C(=O)OC(c3ccccc3)c3ccccc3)N3C(=O)C(N)C3SC2)s1` (stereo unspecified) is higher in melting point: 71 to 73 °C for the first, 157 to 159 °C for the second.

First: O=C1N(c2ccccc2Br)Cc2cnc(Nc3ccccc3)nc2N1CC1CCCCC1
Second: COc1cc2c(cc1Nc1ncc(Cl)c(Nc3ccccc3OCC#N)n1)CCOC(=O)N2C
The melting point of the first is lower: 200 to 202 °C for the first, 245 to 247 °C for the second.

Compared with `CCOc1ccc(F)c2c1c(CCN(C)C)cn2CC`, `Fc1cc(Cc2cccs2)c(Cl)cc1Cl` is higher in melting point: 59 to 60 °C for the first, 60 to 61 °C for the second.

Compared with `NNC(=O)c1cccc2nnsc12`, `COc1ccc2c(=O)nc(-c3cccc(CCC(=O)OC(C)(C)C)n3)sc2c1` is lower in melting point: 270 to 272 °C for the first, 134 to 135 °C for the second.

First: CCCCc1noc(-c2ncn3c2[C@@H]2CCCN2C(=O)c2c(Cl)cccc2-3)n1
Second: O=C1NCCc2c1c1cccc3c1n2CC3
The melting point of the first is lower: 181 to 182 °C for the first, 265 to 267 °C for the second.

First: CC1(C)O[C@]23C[C@H]1CC[C@]2(C)CCCC3=O
Second: CC(=O)N(C)C12CCCCC1Oc1ccccc12 (stereo unspecified)
The melting point of the first is lower: 55 to 56 °C for the first, 138 to 139 °C for the second.

First: CCOCCOc1cc(C(C)C)c(NC(=O)CN2CCN(CCSc3nc4ccccc4o3)CC2)c(C(C)C)c1
Second: CCCOc1cc(C)c(NC(=O)C(C)Br)c(C)c1 (stereo unspecified)
The melting point of the first is lower: 92 to 95 °C for the first, 148 °C for the second.

Compared with `CC1CC2C(C(O)CC3(C)C2CCC3(O)C(=O)COCc2ccccc2[N+](=O)[O-])C2(C)C=CC(=O)C=C12` (stereo unspecified), `CC(C)(C)NC(=O)[C@@H]1CCCN1C(=O)[C@@H](O)[C@H](Cc1ccccc1)NC(=O)[C@H](CC(N)=O)NC(=O)COC1CCN(Cc2ccccc2)CC1` is lower in melting point: 116 to 119 °C for the first, 94 to 103 °C for the second.

First: COC(=O)C(C)(C)n1c(=O)[nH]c2ccccc2c1=O
Second: Cc1ccc2c(C(C)C(=O)O)cc(=O)[nH]c2c1 (stereo unspecified)
The melting point of the first is lower: 158 to 159 °C for the first, 209 to 210 °C for the second.

First: COc1cccc(C=CC(=O)C2C(=O)CCC2=O)c1O
Second: CC1Cc2ccccc2NC1C1=NCCN1 (stereo unspecified)
The melting point of the first is higher: 198 to 200 °C for the first, 138 to 139 °C for the second.

Compared with `O[C@H]1[C@H](O)CS[C@H]1n1cnc2c(Cl)ncnc21`, `CC(=O)OCC(CO)CCn1cnc2c(=O)[nH]c(N)nc21` (stereo unspecified) is higher in melting point: 192 to 193 °C for the first, 194 to 200 °C for the second.

First: CCn1c2ccc(C=NNc3ccccc3)cc2c2cc(C=NNc3ccccc3)ccc21
Second: CC(=O)Nc1ccc(-n2ccnc2S(=O)Cc2ccccc2N(C)C)nc1 (stereo unspecified)
The melting point of the first is lower: 119 to 120 °C for the first, 168 to 170 °C for the second.

First: O=c1[nH]c2cc(-c3ncc[nH]3)c([N+](=O)[O-])cc2[nH]c1=O
Second: O=c1[nH]c2cc(F)c([N+](=O)[O-])cc2o1
The melting point of the first is higher: > 300 °C for the first, 207 to 209 °C for the second.

Compared with `O=c1[nH]c(-c2ccc(CCCl)cc2)cs1`, `Cc1ccc(C(c2ccc(C)cc2)N2CCCC2)cc1` is lower in melting point: 226 to 229 °C for the first, 61 to 63 °C for the second.

First: CNC(=S)N1CCc2[nH]cnc2C1c1ccccc1 (stereo unspecified)
Second: S=C(NCCCCN(Cc1ccc(Cl)c(Cl)c1)c1ccc(Br)cn1)NCCCn1ccnc1
The melting point of the first is higher: 228 °C for the first, 139 to 141 °C for the second.

First: CCCc1nc2c(N)ncc(Br)c2n1CCOCCNC(=O)NC1CCCCC1
Second: Cn1cnc(S(=O)(=O)NCCCCCCNS(=O)(=O)c2cn(C)cn2)c1
The melting point of the first is higher: 185 to 186 °C for the first, 153 to 154 °C for the second.

In the case of `C=CCS(=O)CCNC(N)=O` (stereo unspecified), the melting point is reported as 66 °C.
